Reference: ChEMBL document CHEMBL5620371, “Transient receptor potential ankyrin 1 (TRPA1) modulators: Recent update and future perspective” (Eur J Med Chem, 2023)

What was measured:
[1] = target: T1, Transient receptor potential cation channel subfamily A member 1 (Rattus norvegicus, UniProt Q6RI86); experiment: Agonist activity at rat recombinant TRPA1 expressed in HEK293 cells assessed as increase in intracellular calcium accumulation by Fluo4-AM based assay; type: cell-based
[2] = target: T2, Transient receptor potential cation channel subfamily A member 1 (Homo sapiens, UniProt O75762); experiment: Antagonist activity at human recombinant TRPA1 transfected in HEK293T cells assessed as increase in Ca2+ influx by FLIPR calcium assay; type: cell-based
T2 sequence (O75762 whole entry): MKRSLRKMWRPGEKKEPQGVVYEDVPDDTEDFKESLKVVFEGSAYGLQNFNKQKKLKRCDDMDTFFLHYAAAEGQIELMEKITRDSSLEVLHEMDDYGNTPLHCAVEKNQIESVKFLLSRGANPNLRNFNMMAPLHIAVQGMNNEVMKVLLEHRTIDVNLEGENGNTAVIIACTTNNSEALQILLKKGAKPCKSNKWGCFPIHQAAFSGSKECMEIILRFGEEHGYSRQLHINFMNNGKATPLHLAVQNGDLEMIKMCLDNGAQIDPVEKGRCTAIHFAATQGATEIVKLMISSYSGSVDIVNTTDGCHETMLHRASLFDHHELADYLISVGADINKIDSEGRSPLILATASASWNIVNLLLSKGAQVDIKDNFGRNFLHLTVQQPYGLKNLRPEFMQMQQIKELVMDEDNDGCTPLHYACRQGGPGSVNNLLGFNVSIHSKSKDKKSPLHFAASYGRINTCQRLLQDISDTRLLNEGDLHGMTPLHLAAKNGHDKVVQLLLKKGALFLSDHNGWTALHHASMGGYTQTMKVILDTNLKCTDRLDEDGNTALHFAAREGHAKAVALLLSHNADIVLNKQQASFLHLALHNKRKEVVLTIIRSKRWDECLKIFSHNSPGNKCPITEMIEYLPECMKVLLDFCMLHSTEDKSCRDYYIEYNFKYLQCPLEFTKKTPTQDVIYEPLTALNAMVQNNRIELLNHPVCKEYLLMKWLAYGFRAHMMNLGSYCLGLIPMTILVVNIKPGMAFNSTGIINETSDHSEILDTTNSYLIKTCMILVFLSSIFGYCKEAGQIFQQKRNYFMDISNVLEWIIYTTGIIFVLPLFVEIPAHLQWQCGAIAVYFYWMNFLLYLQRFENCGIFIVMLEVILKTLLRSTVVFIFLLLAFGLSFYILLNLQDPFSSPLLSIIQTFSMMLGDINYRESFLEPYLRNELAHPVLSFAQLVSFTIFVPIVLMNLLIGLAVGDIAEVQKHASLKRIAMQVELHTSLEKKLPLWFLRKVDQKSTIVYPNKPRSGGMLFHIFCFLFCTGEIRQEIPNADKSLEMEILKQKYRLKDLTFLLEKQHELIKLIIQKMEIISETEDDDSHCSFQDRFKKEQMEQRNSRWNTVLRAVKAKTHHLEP

[3] = target: T3, Transient receptor potential cation channel subfamily V member 1 (Homo sapiens, UniProt Q8NER1); experiment: Inhibition of TRPV1 (unknown origin)
T3 sequence (Q8NER1 whole entry): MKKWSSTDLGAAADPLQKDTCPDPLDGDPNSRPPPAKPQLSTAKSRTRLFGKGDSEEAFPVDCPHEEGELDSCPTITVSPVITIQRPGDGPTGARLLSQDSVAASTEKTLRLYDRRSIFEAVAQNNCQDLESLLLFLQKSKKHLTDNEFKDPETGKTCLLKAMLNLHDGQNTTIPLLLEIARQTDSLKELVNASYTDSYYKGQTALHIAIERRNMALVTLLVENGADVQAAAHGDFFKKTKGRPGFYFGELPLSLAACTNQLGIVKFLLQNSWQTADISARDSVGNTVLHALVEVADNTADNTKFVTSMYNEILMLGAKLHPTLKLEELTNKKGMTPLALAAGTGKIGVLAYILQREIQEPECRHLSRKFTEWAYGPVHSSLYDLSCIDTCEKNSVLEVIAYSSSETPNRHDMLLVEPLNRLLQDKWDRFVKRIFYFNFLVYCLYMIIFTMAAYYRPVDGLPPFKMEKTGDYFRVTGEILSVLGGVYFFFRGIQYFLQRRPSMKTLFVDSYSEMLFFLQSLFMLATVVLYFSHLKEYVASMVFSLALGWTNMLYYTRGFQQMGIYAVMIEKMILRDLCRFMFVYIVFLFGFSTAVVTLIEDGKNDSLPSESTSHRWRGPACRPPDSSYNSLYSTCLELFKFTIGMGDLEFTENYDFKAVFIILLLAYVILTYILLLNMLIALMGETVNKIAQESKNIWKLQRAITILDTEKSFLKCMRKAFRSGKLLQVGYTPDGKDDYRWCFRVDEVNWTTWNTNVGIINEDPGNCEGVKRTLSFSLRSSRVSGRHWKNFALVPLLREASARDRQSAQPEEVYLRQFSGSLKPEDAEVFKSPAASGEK

[4] = target: T2, Transient receptor potential cation channel subfamily A member 1; experiment: Antagonist activity at TRPA1 (unknown origin) expressed in HEK293T cells assessed as inhibition of agonist induced channel current by whole-cell patch clamp analysis; type: cell-based
[5] = target: T2, Transient receptor potential cation channel subfamily A member 1; experiment: Agonist activity at TRPA1 (unknown origin)
[6] = target: T4, Transient receptor potential cation channel subfamily A member 1 (Mus musculus, UniProt Q8BLA8); experiment: Agonist activity at full length mouse TRPA1 transfected in HEK293F cells assessed as increase in Ca2+ influx by FLIPR calcium assay; type: cell-based
T4 sequence (Q8BLA8 whole entry): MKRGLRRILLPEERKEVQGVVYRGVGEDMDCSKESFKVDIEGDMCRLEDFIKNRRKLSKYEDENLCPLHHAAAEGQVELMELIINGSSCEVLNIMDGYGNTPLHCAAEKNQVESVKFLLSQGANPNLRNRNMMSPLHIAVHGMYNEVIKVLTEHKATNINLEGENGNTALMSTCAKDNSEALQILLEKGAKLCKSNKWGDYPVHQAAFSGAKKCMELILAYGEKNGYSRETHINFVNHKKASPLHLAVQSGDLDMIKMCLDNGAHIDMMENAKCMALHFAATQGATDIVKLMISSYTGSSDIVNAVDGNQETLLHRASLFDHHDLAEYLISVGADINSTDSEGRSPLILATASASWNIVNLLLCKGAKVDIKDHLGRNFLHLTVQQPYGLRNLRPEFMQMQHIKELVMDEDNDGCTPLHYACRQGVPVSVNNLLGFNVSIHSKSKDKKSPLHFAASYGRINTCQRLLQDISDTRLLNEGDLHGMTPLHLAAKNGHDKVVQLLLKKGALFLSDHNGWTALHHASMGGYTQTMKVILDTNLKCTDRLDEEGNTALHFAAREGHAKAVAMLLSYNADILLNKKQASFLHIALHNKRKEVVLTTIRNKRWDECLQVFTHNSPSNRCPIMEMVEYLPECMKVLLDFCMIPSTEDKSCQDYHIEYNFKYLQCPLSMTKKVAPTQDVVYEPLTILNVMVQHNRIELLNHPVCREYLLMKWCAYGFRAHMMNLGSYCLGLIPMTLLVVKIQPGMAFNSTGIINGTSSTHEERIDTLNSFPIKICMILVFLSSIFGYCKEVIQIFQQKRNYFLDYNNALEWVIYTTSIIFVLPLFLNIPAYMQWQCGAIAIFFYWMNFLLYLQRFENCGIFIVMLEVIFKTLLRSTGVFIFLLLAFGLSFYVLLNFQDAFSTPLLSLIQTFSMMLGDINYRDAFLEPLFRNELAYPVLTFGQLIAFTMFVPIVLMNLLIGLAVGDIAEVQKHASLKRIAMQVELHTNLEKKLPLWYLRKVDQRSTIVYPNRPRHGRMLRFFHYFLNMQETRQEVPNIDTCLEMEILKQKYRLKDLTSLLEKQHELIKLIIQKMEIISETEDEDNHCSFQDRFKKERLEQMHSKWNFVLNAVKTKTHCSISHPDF

[7] = target: T2, Transient receptor potential cation channel subfamily A member 1; experiment: Inhibition of TRPA1 (unknown origin)
[8] = target: T1, Transient receptor potential cation channel subfamily A member 1; experiment: Agonist activity at rat TRPA1 transfected in HEK293F cells assessed as increase in Ca2+ influx by FLIPR calcium assay; type: cell-based
[9] = target: T3, Transient receptor potential cation channel subfamily V member 1; experiment: Agonist activity at human recombinant TRPV1 over expressed in HEK293 cells assessed as increase in intracellular calcium level by measuring efficacy by Fluo4-AM based assay; type: cell-based
[10] = target: T4, Transient receptor potential cation channel subfamily A member 1; experiment: Antagonist activity at mouse TRPA1 expressed in HEK293F cells as increase in Ca2+ influx by FLIPR calcium assay; type: cell-based

T1 sequence (Q6RI86 whole entry): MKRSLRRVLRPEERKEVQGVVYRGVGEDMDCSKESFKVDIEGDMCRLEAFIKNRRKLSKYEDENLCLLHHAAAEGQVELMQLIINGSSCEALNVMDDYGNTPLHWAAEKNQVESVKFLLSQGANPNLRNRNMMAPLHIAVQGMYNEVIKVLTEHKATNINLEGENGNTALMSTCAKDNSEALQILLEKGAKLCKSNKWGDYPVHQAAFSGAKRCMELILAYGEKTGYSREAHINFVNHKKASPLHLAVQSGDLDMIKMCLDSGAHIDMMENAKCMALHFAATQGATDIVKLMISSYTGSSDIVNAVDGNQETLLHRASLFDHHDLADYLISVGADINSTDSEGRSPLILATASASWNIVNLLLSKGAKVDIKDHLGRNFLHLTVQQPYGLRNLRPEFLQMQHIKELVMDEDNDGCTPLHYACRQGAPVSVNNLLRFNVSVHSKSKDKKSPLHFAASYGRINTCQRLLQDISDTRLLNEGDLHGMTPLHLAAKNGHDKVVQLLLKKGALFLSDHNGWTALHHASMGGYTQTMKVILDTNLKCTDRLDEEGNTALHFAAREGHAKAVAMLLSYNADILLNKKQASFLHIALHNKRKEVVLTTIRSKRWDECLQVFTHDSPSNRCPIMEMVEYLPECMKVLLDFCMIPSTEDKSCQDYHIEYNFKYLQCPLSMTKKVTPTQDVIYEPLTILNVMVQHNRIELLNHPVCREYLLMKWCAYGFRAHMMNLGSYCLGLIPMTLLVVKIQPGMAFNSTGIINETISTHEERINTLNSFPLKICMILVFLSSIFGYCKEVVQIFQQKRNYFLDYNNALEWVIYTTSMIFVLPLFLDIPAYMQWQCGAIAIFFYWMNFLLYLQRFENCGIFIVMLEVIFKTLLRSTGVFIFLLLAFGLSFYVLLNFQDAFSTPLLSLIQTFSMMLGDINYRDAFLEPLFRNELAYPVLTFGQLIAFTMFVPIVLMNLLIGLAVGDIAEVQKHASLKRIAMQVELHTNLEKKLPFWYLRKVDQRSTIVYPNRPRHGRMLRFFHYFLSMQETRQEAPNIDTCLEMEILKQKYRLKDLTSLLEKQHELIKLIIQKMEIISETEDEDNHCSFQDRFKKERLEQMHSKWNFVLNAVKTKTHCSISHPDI

## CC(C)CN1C(=O)/C(=C/C(=O)O)c2cccc(F)c21
[1]
  IC50: 0.51 µM

## O=NN1[C@@H]2c3ccccc3[C@H]1[C@@H](C(F)(F)F)C2C(F)(F)F (stereo partly specified)
[2]
  EC50: 5.63 µM

## CC(C)c1cc(CCC(=O)CC(O)Cc2ccccc2)cc(C(C)C)c1O (stereo unspecified)
[3]
  IC50: > 50 µM

## O=C(CCc1ccc2c(c1)OCO2)CC(O)CCCCCCc1ccccc1 (stereo unspecified)
[3]
  IC50: > 10 µM

## O=C(CCc1ccccc1)CC(O)CCCCCCc1ccccc1 (stereo unspecified)
[3]
  IC50: > 10 µM

## C[n+]1cc2c3c(ccc2c2ccc4cc5c(cc4c21)OCO5)OCO3
[4]
  EC50: 0.09 µM

## COCCCN(C(=O)CCl)c1nc(-c2ccc(OC)cc2)cs1
[5]
  EC50: 0.00065 µM

## O=C(O)CCCCCCCCCO
[6]
  EC50: 510 µM

## O=C(CCc1ccccc1)CC(O)Cc1ccccc1 (stereo unspecified)
[7]
  IC50: 4.5 µM
[3]
  IC50: > 50 µM

## Cn1cnc2ncn(Cc3nc([C@@H]4CO[C@@H](c5ccc(F)cc5)C4)no3)c(=O)c21
[8]
  IC50: 0.007 µM

## O=C(O)/C=C/CCCCCCCO
[6]
  EC50: 422 µM

## C[C@@H](N)[C@@H](O)C/C=C\C/C=C\C/C=C\C/C=C\C/C=C\C/C=C\CCCCCC[C@H](O)[C@@H](C)N [LEUCETTAMOL A]
[9]
  EC50: 3.7 µM

## CCC/C=C1\OC(=O)C2=C1CCC=C2 [LIGUSTILIDE]
[10]
  EC50: 44 µM

## O=C1C[C@@H](c2ccc(O[C@@H]3O[C@H](CO)[C@@H](O)[C@H](O)[C@H]3O)cc2)Oc2cc(O)ccc21 [LIQUIRITIN]
[7]
  IC50: 16.2 µM

## CCC/C=C1\OC(=O)c2ccccc21 [Z-butylidenephthalide]
[6]
  EC50: 539 µM
